System: NCI-H358
Assay: CellTiter-Glo cell proliferation inhibition, NCI-H358
Type: cell-based
Details: Homo sapiens; NCI-H358 (lung cancer cell line), 2D, 72 hours; read-out: Example IC50 (µM) NCI-H358(2D)
Source text: This experiment used the CellTiter-Glo® Luminescent Cell Viability Assay kit from Promega to evaluate the inhibitory activity of the disclosed compounds on the proliferation of the following cell lines: 4T1 (mouse breast cancer cell line), A20 (mouse B-cell lymphoma cell line), A2780 (human ovarian cancer cell line), AsPC-1 (pancreatic cancer cell line), B16F10 (mouse melanoma cell line), BT549 (human breast cancer cell line), CT26 (mouse colon cancer cell line), EMT6 (mouse breast cancer cell line), HCT116 (colorectal cancer cell line), Jurket (acute leukemia cell line), KP-4 (pancreatic cancer cell line), LL/2 (mouse lung cancer cell line), MCF7 (breast cancer cell line), […] NCI-H358 (lung cancer cell line), NCI-H727 (gastric cancer cell line), NCI-1944 (lung cancer cell line), Pan 04.03 (pancreatic cancer cell line), SK-BR-3 (breast cancer cell line), THP-1 (leukemia cell line), TOV21G (ovarian cancer cell line), U87MG (glioblastoma cell line), and UM-UC-a (bladder cancer cell line).
All cell lines were purchased from Nanjing Kebai Biotechnology Co., Ltd. The following materials were also used in the experiment: RPMI-1640 media (HyClone, catalog number #SH30022.01), McCoy's 5A media (Thermo Fisher, catalog number #16600-082), MCDB 105 media (Sigma, catalog number #117-500), Medium 199 (Thermo Fisher, catalog number #11150-059), MEM media (Thermo Fisher, catalog number #11095-080), DMEM media (HyClone, catalog number #SH30027.01), fetal bovine serum (FBS) (ExCell, catalog number # M4530), Sodium Pyruvate (100Mm) (Thermo Fisher, catalog number #11360-070), and MEM NEAA (100X) (Thermo Fisher). […]
Cells were cultured according to the instructions provided by the cell supplier (Nanjing Kebai Biotechnology Co., Ltd.). […] Suspension or adherent cells were collected, and cell viability was determined using the trypan blue exclusion method, ensuring that cell viability was above 90%. […]

| IC50 [µM] | SMILES |
| --- | --- |
| 0.074 | O=C(Nc1ccc(-c2csc(CO)c2)cc1)C(=O)Nc1ccc(-c2cc3cc(F)c(-c4nnn[nH]4)cc3n2C2CCC2)cc1 [Example 1] |
| 0.072 | CC1(n2c(-c3ccc(NC(=O)C(=O)Nc4ccc(N5CCC6(CCOC6)CC5)cc4)cc3)cc3cc(F)c(-c4nnn[nH]4)cc32)CCC1 [Example 68] |
| 0.063 | O=C(Nc1ccc(-c2cc3cc(F)c(-c4nnn[nH]4)cc3n2C2CCC2)cc1)C(=O)Nc1ccc(N2CCC3(CCC(O)C3)CC2)cc1 (stereo not drawn) [Example 100] |

Reference: patent EP4741383A1, “COMPOUND AND USE THEREOF AS ANTI-CANCER DRUG” (Tyligand Bioscience (Shanghai) Limited, priority 2023, dated 2025)
